In patent US9765107B2, “Cyclic phosphonate substituted nucleoside derivatives and methods of use thereof for the treatment of viral diseases” (Merck Sharp & Dohme Corp., priority 2013, dated 2017) one finds EC50 and Cytotoxicity data, which are given here for six compounds.

Series [1] can be described thus: Replicon activity assay (replicon RNA by real-time RT-PCR). It counts as cell-based, HCV. The conditions noted are these: Hepatitis C virus, 72 h; replicon RNA level, three days post-dosing, 10% fetal bovine serum; read-out: Replicon (1a) EC50. (In antiviral work, replicon cells carry a viral genome segment that copies itself.)
The subject of series [2] is replicon cells. As to the kind of experiment: Cytotoxicity MTS assay in replicon cells. The conditions noted are these: CC50, MTS assay, three days post dosing. It counts as cell-based. The protocol: To measure cell-based anti-HCV activity of the compounds of the present invention, replicon cells (1b-Con1) are seeded at 5000 cells/well in 96-well plates one day prior to treatment with a compound of the invention. Various concentrations of a test compound of the invention in DMSO are then added to the replicon cells, with the final concentration of DMSO at 0.5% and fetal bovine serum at 10% in the assay media. Cells are harvested three days post-dosing and the replicon RNA level is determined using real-time RT-PCR (Taqman assay) with GAPDH RNA as endogenous control. EC50 values are calculated from experiments with 10 serial twofold dilutions of the inhibitor in triplicate. To measure cytotoxicity in replicon cells of an inhibitor, an MTS assay is performed according to the manufacturer's protocol for CellTiter 96 Aqueous One Solution Cell Proliferation Assay (Promega, Cat #G3580) three days post dosing on cells treated identically as in replicon activity assays. CC50 is the concentration of inhibitor that yields 50% inhibition compared to vehicle-treated cells. Cytotoxicity in other types of cells can be measured using the same MTS protocol.
Background: Tetrazolium dyes change colour on reduction, which living cells bring about.

Each structure is given as a SMILES string. Where only a bound is given, the exact number is not on record here.

With `CC(C)O[P@@]1(=O)OC[C@H]2O[C@@H](n3ccc(=O)[nH]c3=O)[C@](C)(N)C2O1` (stereo partly drawn), the EC50 in series [1] is over 100 µM. For the same compound, the Cytotoxicity in series [2] was over 100 µM.
As to `C[C@@]1(N)[C@@H]2O[P@@](=O)(OCc3ccccc3)OC[C@H]2O[C@H]1n1ccc(=O)[nH]c1=O`, the EC50 in series [1] was 56.2 µM. The compound further registered a Cytotoxicity in series [2] of over 100 µM.
Taken in the same sequence, the figures for `C[C@@]1(N)[C@@H]2O[P@@](=O)(OC3CCCC3)OC[C@H]2O[C@H]1n1ccc(=O)[nH]c1=O` were over 100 µM and over 100 µM.
Taken in the same sequence, the figures for `CCC(CC)CO[P@@]1(=O)OC[C@H]2O[C@@H](n3ccc(=O)[nH]c3=O)[C@](C)(N)[C@@H]2O1` were 43.2 µM and over 100 µM.
For `CCCC(CCC)CO[P@@]1(=O)OC[C@H]2O[C@@H](n3ccc(=O)[nH]c3=O)[C@](C)(N)[C@@H]2O1`, the EC50 in series [1] was over 100 µM. The compound also yielded a Cytotoxicity in series [2] of over 100 µM.
Turning to `C[C@@]1(N)C2O[P@@](=O)(OC3CCC3)OC[C@H]2O[C@H]1n1ccc(=O)[nH]c1=O` (stereo partly drawn), the EC50 in series [1] is over 100 µM. Moreover, in series [2], the Cytotoxicity is over 100 µM.

The term EC50 denotes the concentration at which the effect is half-maximal.
